Data set [1] has as its system uterus of ovariectomized (OVX) rats. Also noted: species or system Sprague Dawley rats. The following applies: rat, in vivo, po, 0.1 mg/kg/day. The procedure:
(§1) In the examples illustrating the methods, a post-menopausal model was used in which effects of different treatments upon circulating lipids were determined.
(§2) Seventy-five day old female Sprague Dawley rats (weight range of 200 to 225 g) are obtained from Charles River Laboratories (Portage, Mich.). The animals are either bilaterally ovariectomized (OVX) or exposed to a Sham surgical procedure at Charles River Laboratories, and then shipped after one week. Upon arrival, they are housed in metal hanging cages in groups of 3 or 4 per cage and have ad libitum access to food (calcium content approximately 0.5%) and water for one week. Room temperature is maintained at 22.2° ±1.7° C. with a minimum relative humidity of 40%. The photoperiod in the room is 12 hours light and 12 hours dark.
Dosing Regimen Tissue Collection. After a one week acclimation period (therefore, two weeks post-OVX) daily dosing with test compound is initiated. 17α-ethynyl estradiol or the test compound is given orally, unless otherwise stated, as a suspension in 1% carboxymethylcellulose or dissolved in 20% cyclodextrin. Animals were dosed daily for 4 days. […] The animals are then sacrificed by asphyxiation with CO2, the uterus is removed through a midline incision, and a wet uterine weight is determined.

Data set [2] relates to Uterine Eosinophil Peroxidase (EPO). Set-up: species or system Sprague Dawley rats. The following applies: rat, in vivo; for Uterine EPO (V. max): po.
Excerpt: as §2
(§3) Dosing Regimen Tissue Collection. After a one week acclimation period (therefore, two weeks post-OVX) daily dosing with test compound is initiated. 17α-ethynyl estradiol or the test compound is given orally, unless otherwise stated, as a suspension in 1% carboxymethylcellulose or dissolved in 20% cyclodextrin. Animals were dosed daily for 4 days. Following the dosing regimen, animals are weighed and anesthetized with a ketamine: Xylazine (2:1, V:V) mixture and a blood sample is collected by cardiac puncture. The animals are then sacrificed by asphyxiation with CO2, the uterus is removed through a midline incision, and a wet uterine weight is determined.
Uterine Eosinophil Peroxidase (EPO) Assay. Uteri are kept at 4° C. until time of enzymatic analysis. The uteri are then homogenized in 50 volumes of 50 mM Tris buffer (pH−8.0) containing 0.005% Triton X-100. Upon addition of 0.01% hydrogen peroxide and 10 mM O-phenylenediamine (final concentrations) in Tris buffer, increase in absorbance is monitored for one minute at 450 nm. The presence of eosonophils in the uterus is an indication of estrogenic activity of a compound. The maximal velocity of a 15 second interval is determined over the initial, linear portion of the reaction curve.

A further data set concerns Serum cholesterol. Nature of the data set: Serum cholesterol in ovariectomized rats (post-menopausal model). It counts as in vivo, Sprague Dawley rats. The following applies: oral; for Serum Cholesterol (% decrease vs. OVX): daily for 4 days. The method, then: as §1, §2, §3
Cholesterol Analysis. Blood samples are allowed to clot at room temperature for 2 hours, and serum is obtained following centrifugation for 10 minutes at 3000 rpm. Serum cholesterol is determined using a Boehringer Mannheim Diagnostics high performance cholesterol assay. Briefly the cholesterol is oxidized to cholest-4-en-3-one and hydrogen peroxide. The hydrogen peroxide is then reacted with phenol and 4-aminophenazone in the presence of peroxidase to produce a p-quinone imine dye, which is read spectrophotemetrically at 500 nm. Cholesterol concentration is then calculated against a standard curve. The entire assay is automated using a Biomek Automated Workstation.

The test system of data set [3] is femur density of ovariectomized rats. Briefly: Osteoporosis Test Procedure (35 day OVX rat, femur density). Conditions: oral in 20% hydroxypropyl β-cyclodextrin, daily for 35 days. Format: in vivo. The method, then: Following the General Preparation Procedure, infra, the rats are treated daily for 35 days (6 rats per treatment group) and sacrificed by carbon dioxide asphyxiation on the 36th day. The 35 day time period is sufficient to allow maximal reduction in bone density, measured as described herein. At the time of sacrifice, the uteri are removed, dissected free of extraneous tissue, and the fluid contents are expelled before determination of wet weight in order to confirm estrogen deficiency associated with complete ovariectomy. […] The uteri are then placed in 10% neutral buffered formalin to allow for subsequent histological analysis. The right femurs are excised and digitilized x-rays generated and analyzed by an image analysis program (NIH image) at the distal metaphysis. The proximal aspect of the tibiae from these animals are also scanned by quantitative computed tomography. In accordance with the above procedures, compounds of the present invention and ethynyl estradiol (EE2) in 20% hydroxypropyl β-cyclodextrin are orally administered to test animals.

Like-named read-outs stand apart in the source and are kept apart here.

In the case of `C#C[C@]1(O)CC[C@H]2[C@@H]3CCc4cc(O)ccc4[C@H]3CC[C@@]21C` [EE2, 17α-ethynyl estradiol, reference compound], in data set [1], the “Effect on uterine weight compared to ovariectomized animals (in words)” value is recorded as “substantially greater than the uterine weight of ovariectomized test animals”. Moreover, the “Eosinophil infiltration into the uterus (stromal layer), in words” value in data set [2] is “substantial, expected increase in eosinophil infiltration”. In addition, in data set [2] (0.1 mg/kg), the “Uterine EPO (V. max)” value is 189.6. Besides, in the data set with Serum cholesterol (OVX rats, EE2 at 0.1 mg/kg/day), the “Effect on serum cholesterol compared to ovariectomized controls (in words)” value is reported as “caused a decrease in serum cholesterol”. Also, the “Serum Cholesterol (% decrease vs. OVX)” value in the data set with Serum cholesterol (dose 0.1 mg/kg) stood at 84.8%. In data set [3], the “Prevention of loss of femur density / bone loss after ovariectomy” value was “prevented this loss”.

As to `CC(O)(c1ccc(OCCN2CCCCC2)cc1)c1c(-c2ccc(O)cc2)sc2cc(O)ccc12` (stereo not drawn) [Example 2], the “Uterine EPO (V. max)” value in data set [2] (0.01 mg/kg) is listed as 4.2; in data set [2] (0.1 mg/kg), 5.1; in data set [2] (1 mg/kg), 7.8; in data set [2] (5 mg/kg), 5.7. Also, the “Serum Cholesterol (% decrease vs. OVX)” value with Serum cholesterol (dose 0.01 mg/kg) is −10.2%; in the data set with Serum cholesterol (dose 0.1 mg/kg) it was 19.4%; in the data set with Serum cholesterol (dose 1.0 mg/kg), 50.7%; with Serum cholesterol (dose 5.0 mg/kg), 53.9%.

As to `CC(c1ccc(OCCN2CCCCC2)cc1)c1c(-c2ccc(O)cc2)sc2cc(O)ccc12` (stereo not drawn) [Example 4], the “Uterine EPO (V. max)” value in data set [2] (0.01 mg/kg) amounted to 4.5; in data set [2] (0.1 mg/kg), 3.6; in data set [2] (1 mg/kg) it was 5.4; in data set [2] (5 mg/kg), 3.9. Besides, the “Serum Cholesterol (% decrease vs. OVX)” value is on record as −26.5% in the data set with Serum cholesterol (dose 0.01 mg/kg), 10.4% in the data set with Serum cholesterol (dose 0.1 mg/kg), 43.9% in the data set on Serum cholesterol (dose 1.0 mg/kg) and 35.2% in the data set with Serum cholesterol (dose 5.0 mg/kg).

As for `Oc1ccc(-c2sc3cc(O)ccc3c2C(O)(c2ccccc2)c2ccc(OCCN3CCCCC3)cc2)cc1` (stereo not drawn) [Example 8], the “Uterine EPO (V. max)” value is listed as 4.2 in data set [2] (0.01 mg/kg), 3.6 in data set [2] (0.1 mg/kg), 4.5 in data set [2] (1 mg/kg) and 35.1 in data set [2] (5 mg/kg). Further, the “Serum Cholesterol (% decrease vs. OVX)” value with Serum cholesterol (dose 0.01 mg/kg) is recorded as −9.0%; in the data set on Serum cholesterol (dose 0.1 mg/kg), −3.1%; in the data set on Serum cholesterol (dose 1.0 mg/kg), 14.0%; in the data set on Serum cholesterol (dose 5.0 mg/kg), 56.9%.

Regarding `O=C(c1ccc(OCCN2CCCCC2)cc1)c1c(-c2ccc(O)cc2)sc2cc(O)ccc12` [Raloxifene, reference compound], the “Uterine EPO (V. max)” value stood at 3.9 in data set [2] (0.01 mg/kg), 5.4 in data set [2] (0.1 mg/kg) and 4.5 in data set [2] (1 mg/kg). Further, the “Serum Cholesterol (% decrease vs. OVX)” value is on record as 12.0% with Serum cholesterol (dose 0.01 mg/kg), 30.4% in the data set on Serum cholesterol (dose 0.1 mg/kg) and 60.6% with Serum cholesterol (dose 1.0 mg/kg).

The values above are taken from patent US6395755B1, “Benzothiophene pharmaceutical compounds” (Eli Lilly and Company, priority 1995, dated 2002).
